Laboratory results from patent US10730863B2, “Bridged bicyclic compounds as farnesoid X receptor modulators” (BRISTOL-MYERS SQUIBB COMPANY, priority 2017, dated 2020).

Molecular target: FXR (Homo sapiens (Human), UniProt Q96RI1)
Test: FXR EC50 (FXR agonist activity reported with each example)
Type: cell-based

FXR, sequence (Q96RI1 262-486): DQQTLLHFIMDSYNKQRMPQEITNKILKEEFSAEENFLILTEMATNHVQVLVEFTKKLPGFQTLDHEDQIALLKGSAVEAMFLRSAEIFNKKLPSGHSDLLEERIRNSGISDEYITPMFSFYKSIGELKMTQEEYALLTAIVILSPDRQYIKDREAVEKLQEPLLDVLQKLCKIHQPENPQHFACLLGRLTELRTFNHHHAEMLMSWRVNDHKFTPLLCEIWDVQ

SMILES | EC50
O=C(O)c1cccc(-c2nnc(C34CCC(OCc5c(-c6ccccc6OC(F)(F)F)noc5C5CC5)(CC3)CC4)o2)c1 [Example 18, 3-(5-(4-((5-cyclopropyl-3-(2-(trifluoromethoxy)phenyl)isoxazol-4-yl)methoxy)bicyclo[2.2.2]octan-1-yl)-1,3,4-oxadiazol-2-yl)benzoic acid] | 1.1 µM
O=C(O)c1ccc2nc(OCC34CCC(C=Cc5c(-c6c(Cl)cccc6Cl)noc5C5CC5)(CC3)CC4)sc2c1 [Example 192] | 0.0072 µM
NC(=O)c1cc(F)c2nc(C(O)C34CCC(OCc5c(-c6c(Cl)cccc6Cl)noc5C5CC5)(CC3)CC4)sc2c1 (stereo not drawn) [Example 123, 2-((4-((5-cyclopropyl-3-(2,6-dichlorophenyl)isoxazol-4-yl)methoxy)bicyclo[2.2.2]octan-1-yl)(hydroxy)methyl)-4-fluorobenzo[d]thiazole-6-carboxamide] | 0.28 µM
CCOc1cc(OCC23CCC(OCc4c(-c5c(Cl)cncc5Cl)noc4C4CC4)(CC2)CC3)cnc1C(N)=O [Example 295] | 0.23 µM
CC(C)Oc1cc(Cl)c2nc(C34CCC(OCc5c(-c6c(Cl)cncc6Cl)noc5C5CC5)(CC3)CC4)ccc2c1C(=O)O [Example 427] | 0.005 µM
O=C(O)c1ccc2nc(C34CCC(OCc5c(-c6c(Cl)cncc6Cl)noc5C5CC5)(CC3)CC4)ccc2n1 [Example 421] | 0.053 µM
O=C(O)c1cc(OCC23CCC(/C=C/c4c(-c5c(Cl)cncc5Cl)noc4C4CC4)(CC2)CC3)cc(C(F)(F)F)c1 [Example 506, (E)-3-((4-(2-(5-cyclopropyl-3-(3,5-dichloropyridin-4-yl)isoxazol-4-yl)vinyl)bicyclo[2.2.2]octan-1-yl)methoxy)-5-(trifluoromethyl)benzoic acid] | 0.006 µM
CCOc1cc(OCC23CCC(OCc4c(-c5c(Cl)cncc5Cl)noc4C4CC4)(CC2)CC3)cnc1C(=O)O [Example 294, 5-((4-((5-cyclopropyl-3-(3,5-dichloropyridin-4-yl)isoxazol-4-yl)methoxy)bicyclo[2.2.2]octan-1-yl)methoxy)-3-ethoxypicolinic acid] | 0.032 µM
COc1cc(C(=O)O)nc2c(F)cc(OCC34CCC(OCc5c(-c6c(Cl)cncc6Cl)noc5C5CC5)(CC3)CC4)cc12 [Example 303, 6-((4-((5-cyclopropyl-3-(3,5-dichloropyridin-4-yl)isoxazol-4-yl)methoxy)bicyclo[2.2.2]octan-1-yl)methoxy)-8-fluoro-4-methoxyquinoline-2-carboxylic acid] | 0.024 µM
O=C(O)c1cnn(CC23CCC(OCc4c(-c5c(Cl)cccc5Cl)noc4C4CC4)(CC2)CC3)c1C(F)F [Example 269, 1-((4-((5-cyclopropyl-3-(2,6-dichlorophenyl)isoxazol-4-yl)methoxy)bicyclo[2.2.2]octan-1-yl)methyl)-5-(difluoromethyl)-1H-pyrazole-4-carboxylic acid] | 0.7 µM
O=C(O)c1ccc(-c2noc(C34CCC(OCc5c(-c6ccccc6C(F)(F)F)noc5C5CC5)(CC3)CC4)n2)cc1 [Example 29] | 0.33 µM
O=C(O)c1ccc2nc(C34CCC(OCc5c(-c6c(Cl)cccc6Cl)noc5C5CC5)(CC3)CC4)ncc2c1 [Example 24, 2-(4-((5-cyclopropyl-3-(2,6-dichlorophenyl)isoxazol-4-yl)methoxy)bicyclo[2.2.2]octan-1-yl)quinazoline-6-carboxylic acid] | 0.25 µM
CCOc1cc(C(=O)O)nc2c(F)cc(OCC34CCC(OCc5c(-c6c(Cl)cncc6Cl)noc5C5CC5)(CC3)CC4)cc12 [Example 306, 6-((4-((5-cyclopropyl-3-(3,5-dichloropyridin-4-yl)isoxazol-4-yl)methoxy)bicyclo[2.2.2]octan-1-yl)methoxy)-4-ethoxy-8-fluoroquinoline-2-carboxylic acid] | 0.011 µM
O=C(O)c1cccc(-c2noc(C34CCC(COCc5c(-c6c(Cl)cccc6Cl)noc5C5CC5)(CC3)CO4)n2)c1 [Example 210, 3-(5-(4-(((5-cyclopropyl-3-(2,6-dichlorophenyl)isoxazol-4-yl)methoxy)methyl)-2-oxabicyclo[2.2.2]octan-1-yl)-1,2,4-oxadiazol-3-yl)benzoic acid] | 0.96 µM
Cc1cc(C(=O)O)nc2ccc(OCC34CCC(OCc5c(-c6c(Cl)cncc6Cl)noc5C5CC5)(CC3)CC4)cc12 [Example 325] | 0.052 µM
O=C(O)c1ccc(C23CCC(COCc4c(-c5c(Cl)cccc5Cl)noc4C4CC4)(CC2)CO3)cc1 [Example 201] | 0.27 µM
O=C(O)c1cccc2nc(C34CCC(C=Cc5c(-c6ccccc6OC(F)(F)F)noc5C5CC5)(CC3)CC4)sc12 [Example 186] | 0.067 µM
COc1c(C(=O)O)cccc1-c1noc(C23CCC(/C=C/c4c(-c5c(Cl)cncc5Cl)noc4C4CC4)(CC2)CC3)n1 [Example 448, (E)-3-(5-(4-(2-(5-cyclopropyl-3-(3,5-dichloropyridin-4-yl)isoxazol-4-yl)vinyl)bicyclo[2.2.2]octan-1-yl)-1,2,4-oxadiazol-3-yl)-2-methoxybenzoic acid] | 0.01 µM

SMILES | EC50
O=C(O)c1c(F)ccc(-c2noc(C34CCC(OCc5c(-c6c(Cl)cccc6Cl)noc5C5CC5)(CC3)CC4)n2)c1F [Example 68, 3-(5-(4-((5-Cyclopropyl-3-(2,6-dichlorophenyl)isoxazol-4-yl)methoxy)bicyclo[2.2.2]octan-1-yl)-1,2,4-oxadiazol-3-yl)-2,6-difluorobenzoic acid] | 0.25 µM
O=C(O)c1cc(C#CC23CCC(OCc4c(-c5c(Cl)cncc5Cl)noc4C4CC4)(CC2)CC3)c2cc[nH]c2c1 [Example 416] | 0.04 µM
O=C(O)c1cccc2nc(C34CCC(COCc5c(-c6c(Cl)cccc6Cl)noc5C5CC5)(CC3)CC4)sc12 [Example 172, 2-(4-(((5-cyclopropyl-3-(2,6-dichlorophenyl)isoxazol-4-yl)methoxy)methyl)bicyclo[2.2.2]octan-1-yl)benzo[d]thiazole-7-carboxylic acid] | 0.089 µM
Cc1cc(C(=O)O)ncc1C#CC12CCC(OCc3c(-c4c(Cl)cncc4Cl)noc3C3CC3)(CC1)CC2 [Example 387] | 0.057 µM
O=C(O)c1ccnc(OCC23CCC(OCc4c(-c5c(Cl)cccc5Cl)noc4C4CC4)(CC2)CC3)n1 [Example 108, 2-((4-((5-cyclopropyl-3-(2,6-dichlorophenyl)isoxazol-4-yl)methoxy)bicyclo[2.2.2]octan-1-yl)methoxy)pyrimidine-4-carboxylic acid] | 0.54 µM
O=C(O)c1ccc2c(c1)CCN(C(=O)C13CCC(OCc4c(-c5c(Cl)cccc5Cl)noc4C4CC4)(CC1)CC3)C2 [Example 140, 2-(4-((5-cyclopropyl-3-(2,6-dichlorophenyl)isoxazol-4-yl)methoxy)bicyclo[2.2.2]octane-1-carbonyl)-1,2,3,4-tetrahydroisoquinoline-6-carboxylic acid] | 1.7 µM
O=C(O)c1cc(-c2noc(C34CCC(OCc5c(-c6c(Cl)cccc6Cl)noc5C5CC5)(CC3)CC4)n2)ccc1F [Example 64, 5-(5-(4-((5-Cyclopropyl-3-(2,6-dichlorophenyl)isoxazol-4-yl)methoxy)bicyclo[2.2.2]octan-1-yl)-1,2,4-oxadiazol-3-yl)-2-fluorobenzoic acid] | 0.14 µM
COc1ccc(-c2noc(C34CCC(OCc5c(-c6ccccc6C(F)(F)F)noc5C5CC5)(CC3)CC4)n2)cc1C(=O)O [Example 31] | 0.37 µM
O=C(O)c1cccc(-c2noc(C34CCC(OCc5c(-c6c(Cl)cncc6Cl)noc5C5CC5)(CC3)CC4)n2)c1F [Example 71, 3-(5-(4-((5-Cyclopropyl-3-(3,5-dichloropyridin-4-yl)isoxazol-4-yl)methoxy)bicyclo[2.2.2]octan-1-yl)-1,2,4-oxadiazol-3-yl)-2-fluorobenzoic acid] | 0.069 µM
O=C(O)c1cccc(C23CCC(COCc4c(-c5c(Cl)cccc5Cl)noc4C4CC4)(CC2)CO3)c1 [Example 195, 3-(4-(((5-cyclopropyl-3-(2,6-dichlorophenyl)isoxazol-4-yl)methoxy)methyl)-2-oxabicyclo[2.2.2]octan-1-yl)benzoic acid] | 0.047 µM
O=C(O)c1cccc(-c2nc(C34CCC(OCc5c(-c6ccccc6OC(F)(F)F)noc5C5CC5)(CC3)CC4)no2)n1 [Example 61] | 0.84 µM
Clc1cccc(Cl)c1-c1noc(C2CC2)c1COCC12CCC(c3cccc(-c4nnn[nH]4)c3)(CC1)OC2 [Example 220, 4-(((1-(3-(1H-tetrazol-5-yl)phenyl)-2-oxabicyclo[2.2.2]octan-4-yl)methoxy)methyl)-5-cyclopropyl-3-(2,6-dichlorophenyl)isoxazole] | 0.87 µM
O=C(O)c1cc(-c2noc(C34CCC(OCc5c(-c6c(Cl)cncc6Cl)noc5C5CC5)(CC3)CC4)n2)cc(C(F)(F)F)c1 [Example 235, 3-(5-(4-((5-cyclopropyl-3-(3,5-dichloropyridin-4-yl)isoxazol-4-yl)methoxy)bicyclo[2.2.2]octan-1-yl)-1,2,4-oxadiazol-3-yl)-5-(trifluoromethyl)benzoic acid] | 0.025 µM
COc1cc(C#CC23CCC(OCc4c(-c5c(Cl)cncc5Cl)noc4C4CC4)(CC2)CC3)nc(C(=O)O)c1 [Example 377] | 0.39 µM
O=C(O)c1ncc(OCC23CCC(OCc4c(-c5c(Cl)cncc5Cl)noc4C4CC4)(CC2)CC3)cc1C(F)(F)F [Example 285, 5-((4-((5-cyclopropyl-3-(3,5-dichloropyridin-4-yl)isoxazol-4-yl)methoxy)bicyclo[2.2.2]octan-1-yl)methoxy)-3-(trifluoromethyl)picolinic acid] | 0.13 µM
O=C(O)c1cc(C23CCC(COCc4c(-c5ccccc5OC(F)(F)F)noc4C4CC4)(CC2)CO3)ccc1F [Example 207] | 0.57 µM
O=C(O)c1cccc(/C=C/C23CCC(OCc4c(-c5c(Cl)cccc5Cl)noc4C4CC4)(CC2)CC3)c1 [Example 7, (E)-3-(2-(4-((5-cyclopropyl-3-(2,6-dichlorophenyl)isoxazol-4-yl)methoxy)bicyclo[2.2.2]octan-1-yl)vinyl)benzoic acid] | 0.15 µM
O=C(O)c1cccc(OCC23CCC(OCc4c(-c5c(Cl)cccc5Cl)noc4C4CC4)(CC2)CC3)c1 [Example 82, 3-((4-((5-cyclopropyl-3-(2,6-dichlorophenyl)isoxazol-4-yl)methoxy)bicyclo[2.2.2]octan-1-yl)methoxy) benzoic acid] | 0.022 µM
